Key:
HSC-T6 cells = assay: Measurement of intracellular ROS (DCFH-DA, flow cytometry and confocal microscopy); type: cell-based, mice; details: HSC-T6, TGF-β 2 ng/ml; FIGS. 2-4
Description: For visualization and analysis of intracellular ROS, the oxidation-sensitive probe DCFH-DA was used, as previously described. To analyze the net intracellular generation of ROS by flow cytometry, cells were detached by trypsinization after incubation in the absence or presence of the different factors. The cellular fluorescence intensity was measured after 30 min incubation with […] DCFH-DA, by using the same flow cytometer described above. Propidium iodide (0.005%) was used to detect dead cells. For each analysis, 10,000 events were recorded. For confocal microscopy analysis, after incubation of cells in the absence or presence of the different factors, they were washed twice with PBS and the cellular fluorescence intensity was visualized after 30 min of incubation with […] DCFH-DA by using the same confocal microscopy described above. The analysis results were illustrated in FIGS. 2-4. […]
The influences of hepacin on mice-derived once-activated HSC-T6 line were studied. […] The luciferase activity was determined with or without 10, 5, 1 nM of hepacin in the absence or presence of 2 ng/ml of transforming growth factor TGF-β. The effects of hepacin on generation of intracellular reactive oxygen species (ROS) in HSC-T6 were also analyzed.

TGF-β = TGF-β mediated inflammation and fibrosis, cell model (HSC-T6) and animal model (mouse liver fibrosis); details: overall conclusion from the tests of Example 2 (FIGS. 5-10)
Description: The EMSA used the following oligonucleotides: consensus Sp1 (f), 5′-GTTGCGGGGCGGGGCCGAGTG-3′; consensus Sp1 (r), 3′-AACGCCCCGCCCCGGCTCACG-5′. 30 pmol of each of the forward and reverse oligonucleotides placed in a volume of 23 μl of 1× Klenow (DNA polymerase) buffer were heated at 94° C. for 2 min and annealed at room temperature for 30 min. The annealed double-stranded oligonucleotides were end-labeled by a fill-in reaction using DNA polymerase (Klenow)(Promega). One unit of the DNA polymerase (Klenow) and […] of (−32P)dCTP (PerkinElmer Life Sciences) were added into the annealed oligonucleotides and the mixture was incubated at 30° C. for 15 min. […] Samples were analyzed on a 4% polyacrylamide gel (acrylamide/bisacrylamide 29:1 in 0.5×Tris borate-EDTA buffer) at 10 V/cm for 2.5 h. The gel was dried and analyzed by autoradiography. […]
Liver samples (0.5 g) were lysed (Reporter lysis buffer, Promega, Madison, Wis., USA), the protein were boiled in Laemmli's sample buffer and samples were subjected to 10% SDSPAGE followed by western immunoblotting. […] Immunoreactive bands were detected using the enhanced chemiluminescence (ECL) reagent using SuperSignal West Pico Chemiluminescent Substrate (Pierce, Rockford, Ill., USA). The light emitted by the chemical reaction was detected by exposure to Hyperfilm ECL (Amersham Biosciences, Uppsala, Sweden). […]

CC(C)=CCOc1ccc(C2=C(CC(C)C)C(=O)NC2=O)cc1 [Compound 2, 3-Isobutyl-4-[4-(3-methyl-2-butenyloxy)phenyl]-1H-pyrrole-2,5-dione]
ROS scavenging (HSC-T6 cells): ROS Scavenger
TGF-β mediated inflammation and fibrosis (TGF-β): Down Regulated TGF-β Mediated Inflammation and Fibrosis

Reference: US7732482B2, “Compound from Antrodia camphorata and the use thereof” (Simpson Biotech Co., Ltd., priority 2004, dated 2010)
